In the supplement of paper PMC10307832:

How the values were obtained:
Test in all cases: relative viability (nuclei count vs DMSO), 5 days (fraction); higher = more cells survive
Staurosporine + Olaparib = compound: CN[C@@H]1C[C@H]2O[C@@](C)([C@@H]1OC)n1c3ccccc3c3c4c(c5c6ccccc6n2c5c31)C(=O)NC4 [Staurosporine] + O=C(c1cc(Cc2n[nH]c(=O)c3ccccc23)ccc1F)N1CCN(C(=O)C2CC2)CC1 [Olaparib] (partner 8 µM)
How it was run: (§1)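 Medians of duplicate plates are given as relative viability. That measure is the nuclei count in treated wells divided by the count in vehicle wells. Counts were taken on 4× images of lung cancer cell lines in 1536-well plates, 5 days after pin-tool dosing the day after seeding with one drug alone or a fixed anchor-drug dose plus five library-drug doses (not always all listed) in √10 steps.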

Sulindac + Navitoclax = compound: CC1=C(CC(=O)O)c2cc(F)ccc2/C1=C\c1ccc([S+](C)[O-])cc1 [Sulindac] + CC1(C)CCC(c2ccc(Cl)cc2)=C(CN2CCN(c3ccc(C(=O)NS(=O)(=O)c4ccc(N[C@H](CCN5CCOCC5)CSc5ccccc5)c(S(=O)(=O)C(F)(F)F)c4)cc3)CC2)C1 [Navitoclax] (partner 0.5 µM)
How it was run: as §1

Sulindac + Alpelisib = compound: CC1=C(CC(=O)O)c2cc(F)ccc2/C1=C\c1ccc([S+](C)[O-])cc1 [Sulindac] + Cc1nc(NC(=O)N2CCC[C@H]2C(N)=O)sc1-c1ccnc(C(C)(C)C(F)(F)F)c1 [Alpelisib] (partner 2 µM)
How it was run: as §1

[1] = compound: CN[C@@H]1C[C@H]2O[C@@](C)([C@@H]1OC)n1c3ccccc3c3c4c(c5c6ccccc6n2c5c31)C(=O)NC4 [Staurosporine] + CC(=O)Nc1cccc(-n2c(=O)n(C3CC3)c(=O)c3c(Nc4ccc(I)cc4F)n(C)c(=O)c(C)c32)c1 [Trametinib] (partner 0.02 µM)
How it was run: as §1

Cell Line	relative viability (Staurosporine + Olaparib; first compound 0.005 µM)	relative viability (Staurosporine + Olaparib; first compound 0.01581 µM)	relative viability (Staurosporine + Olaparib; first compound 0.05 µM)	relative viability (Staurosporine + Olaparib; first compound 0.1581 µM)	relative viability (Staurosporine + Olaparib; first compound 0.5 µM)	relative viability (Sulindac + Navitoclax; first compound 0.08 µM)	relative viability (Sulindac + Navitoclax; first compound 0.253 µM)	relative viability (Sulindac + Navitoclax; first compound 0.8 µM)	relative viability (Sulindac + Navitoclax; first compound 2.53 µM)	relative viability (Sulindac + Navitoclax; first compound 8 µM)	relative viability (Sulindac + Alpelisib; first compound 0.08 µM)	relative viability (Sulindac + Alpelisib; first compound 0.253 µM)	relative viability (Sulindac + Alpelisib; first compound 0.8 µM)	relative viability (Sulindac + Alpelisib; first compound 2.53 µM)	relative viability (Sulindac + Alpelisib; first compound 8 µM)	relative viability ([1]; first compound 0.005 µM)	relative viability ([1]; first compound 0.01581 µM)	relative viability ([1]; first compound 0.05 µM)	relative viability ([1]; first compound 0.1581 µM)	relative viability ([1]; first compound 0.5 µM)
NCI-H2087	0.48	0.414	0.217	0.0849	0.0689	0.958	0.939	0.88	0.973	1.1	1.16	1	1.23	1.17	1.04	0.167	0.142	0.0865	0.0713	0.0829
NCI-H2126	0.89	0.634	0.62	0.468	0.4	0.823	0.894	0.817	0.856	0.853	0.723	0.737	0.669	0.721	0.807	0.592	0.373	0.375	0.339	0.345
NCI-H2170	0.617	–	0.455	0.223	0.165	0.564	0.638	0.495	0.71	0.6	1.03	0.904	0.613	0.835	0.912	–	–	0.904	0.63	0.379
NCI-H2228	0.375	0.211	0.18	0.0961	0.0588	0.937	0.967	0.839	1.46	1.01	0.67	0.862	0.725	0.825	0.753	0.332	0.089	0.169	0.0671	0.0687
NCI-H2347	0.481	0.319	0.39	0.371	0.292	0.821	0.803	0.641	0.725	0.862	1.22	1.05	0.938	1.04	1.17	0.259	0.248	0.174	0.221	0.186
NCI-H2405	0.204	0.179	0.14	0.122	0.0873	0.934	0.9	0.783	0.859	1.11	0.725	0.794	0.713	0.796	0.917	0.355	0.161	0.148	0.0927	0.0684
